Test results published in patent US12414952B2 (Merck Sharp & Dohme LLC, priority 2018, dated 2025).

Legend:
[1] = biological target: human A2b adenosine receptor (Homo sapiens (Human), UniProt P29275); assay: A2b binding affinity, radioligand filtration binding assay; details: tritiated proprietary A2b antagonist, HEK293 membranes
Protocol: Measurement of A2b Binding Affinity
The reported affinity of the compounds of the invention for the human A2b adenosine receptor was determined experimentally using a radioligand filtration binding assay. This assay measures the amount of binding of a tritiated proprietary A2b receptor antagonist, in the presence and absence of a compound of the invention, to membranes made from HEK293 cells recombinantly expressing the human A2b adenosine receptor (Perkin Elmer, Cat. No. ES-013-C).
The filter plate was incubated for at least 1 h at 55° C. and allowed to dry. The bottom of the filter plate was then sealed with backing tape. […] The plates were then incubated for at least 20 min, and then the amount of radioactivity remaining in each well was determined using a TopCount® (Perkin Elmer) scintillation counter. After normalization to total and non-specific binding, the percent effect at each compound concentration was calculated. The plot of percent effect versus the log of compound concentration was analyzed electronically using a 4-parameter logistic fit based on the Levenberg-Marquardt algorithm to generate IC50 values.

[2] = biological target: human A2a adenosine receptor (Homo sapiens (Human), UniProt P29274); assay: A2a binding affinity using radioligand binding, Method (A); details: Method (A): [3H]SCH58261 filtration binding
human A2a adenosine receptor, sequence (P29274 whole entry): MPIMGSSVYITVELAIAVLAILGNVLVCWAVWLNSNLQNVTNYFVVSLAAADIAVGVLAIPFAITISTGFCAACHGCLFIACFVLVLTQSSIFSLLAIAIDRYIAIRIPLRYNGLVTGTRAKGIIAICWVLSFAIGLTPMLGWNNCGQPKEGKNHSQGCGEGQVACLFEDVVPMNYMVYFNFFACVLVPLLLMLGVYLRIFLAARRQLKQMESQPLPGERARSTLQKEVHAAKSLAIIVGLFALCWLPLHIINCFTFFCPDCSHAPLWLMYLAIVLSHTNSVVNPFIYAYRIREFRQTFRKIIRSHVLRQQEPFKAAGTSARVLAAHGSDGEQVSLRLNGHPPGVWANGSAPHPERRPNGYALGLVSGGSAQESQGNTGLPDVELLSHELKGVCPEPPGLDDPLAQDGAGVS
Text: The A2a receptor affinity binding assay measured the amount of binding of a tritiated ligand with high affinity for the A2a adenosine receptor to membranes made from HEK293 or CHO cells recombinantly expressing the human A2a adenosine receptor, in the presence of varying concentrations of a compound of the invention. The data were generated using either filtration binding or a homogenous scintillation proximity assay (SPA).
Method (A): Measurement of A2a Binding Affinity Using Radioligand Binding
148 μL (5 μg/mL) membranes (Perkin Elmer, Cat. No. RBHA2aM400UA) and 2 μL compounds of the invention to be tested (test compound) were transferred to individual wells of a 96-well polypropylene assay plate and incubated for 15 to 30 min at room temperature. [^3H] SCH58261 ((7-(2-phenylethyl)-5-amino-2-(2-furyl)-pyrazolo-[4,3-e]-1,2,4-triazolo[1,5-c]pyrimidine)) was diluted in assay buffer (50 mM Tris pH 7.4, 10 mM MgCl2, 0.005% Tween20) to a concentration of 4 nM and 50 μL transferred to each well of the assay plate. […] The assay plate was incubated at room temperature for 60 min with agitation. […] Filtering was achieved by aspirating the contents of the assay plate for 5 sec, then washing and aspirating the contents three times with ice-cooled wash buffer (50 mM Tris-HCl pH 7.4, 150 mM NaCl) and allowing the vacuum manifold to dry the plate for […]. The filter plate was incubated for at least 1 h at 55° C. and allowed to dry. The bottom of the filter plate was sealed with backing tape. […] The plate was incubated for at least 20 min, and then the amount of radioactivity remaining in each well was determined using a TopCount® (Perkin Elmer) scintillation counter. After normalization to total and non-specific binding, the percent effect at each compound concentration was calculated. The plot of percent effect versus the log of compound concentration was analyzed electronically using a 4-parameter logistic fit based on the Levenberg-Marquardt algorithm to generate IC50 values.

human A2b adenosine receptor, sequence (P29275 whole entry): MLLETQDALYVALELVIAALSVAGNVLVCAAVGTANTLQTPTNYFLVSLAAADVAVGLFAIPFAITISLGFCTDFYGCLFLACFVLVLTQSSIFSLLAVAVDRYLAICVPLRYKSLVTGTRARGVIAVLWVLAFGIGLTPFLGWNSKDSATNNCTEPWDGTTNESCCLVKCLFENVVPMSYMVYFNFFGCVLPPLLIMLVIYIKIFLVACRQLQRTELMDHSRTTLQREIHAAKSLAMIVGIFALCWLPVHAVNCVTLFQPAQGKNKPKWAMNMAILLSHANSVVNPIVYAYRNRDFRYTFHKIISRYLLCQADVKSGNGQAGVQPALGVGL

IC50 [1] | IC50 [2] | Structure (SMILES)
1680 nM | 0.7 nM | Cc1c(-c2ncco2)nc(N)n2nc(CCN3Cc4nnn(C(C)C)c4C(C)C3)nc12 (single isomer, unassigned) [Example 17.8-1, (R or S)-2-(2-(1-isopropyl-7-methyl-1,4,6,7-tetrahydro-5H-[1,2,3]triazolo[4,5-c]pyridin-5-yl)ethyl)-8-methyl-7-(oxazol-2-yl)-[1,2,4]triazolo[1,5-c]pyrimidin-5-amine]
14 nM | 2.3 nM | Cc1c(-c2ncco2)nc(N)n2nc(CCN3Cc4nnn(C(C)C)c4C(C)C3)nc12 (single isomer, unassigned) [Example 17.8-2, (R or S)-2-(2-(1-isopropyl-7-methyl-1,4,6,7-tetrahydro-5H-[1,2,3]triazolo[4,5-c]pyridin-5-yl)ethyl)-8-methyl-7-(oxazol-2-yl)-[1,2,4]triazolo[1,5-c]pyrimidin-5-amine]
16.2 nM | 2.1 nM | Cc1c(-c2ncco2)nc(N)n2nc(CCN3CCn4c(cnc4C(C)C)C3)nc12 [Example 1.10]
56.3 nM | 3.6 nM | Cc1c(-c2ncco2)nc(N)n2nc(CCN3CCn4c(cnc4C4CCC4)C3)nc12 [Example 1.11]
218 nM | 4.8 nM | Cc1c(-c2ncco2)nc(N)n2nc(CCN3CCn4c(cnc4C4CC4)C3)nc12 [Example 1.12]
144 nM | 1 nM | Cc1c(-c2ncco2)nc(N)n2nc(CCN3CCc4c(cnn4C4CCC4)C3)nc12 [Example 1.13]
399 nM | 6.7 nM | Cc1c(-c2ncco2)nc(N)n2nc(CCN3CCc4nn(C5CCC5)cc4C3)nc12 [Example 1.14]
402 nM | 0.1 nM | Cc1c(-c2ncco2)nc(N)n2nc(CCN3CCc4c(nnn4C(C)C)C3)nc12 [Example 1.15]
111 nM | 0.3 nM | Cc1c(-c2ncco2)nc(N)n2nc(CCN3CCc4c(nnn4C4CC4)C3)nc12 [Example 1.16]
35.2 nM | 1.3 nM | Cc1c(-c2ncco2)nc(N)n2nc(CCN3CCc4c(nnn4CC(F)(F)F)C3)nc12 [Example 1.17]
694 nM | 18.1 nM | Cc1c(-c2ncco2)nc(N)n2nc(CCN3CCc4c(nnn4CC(C)(C)O)C3)nc12 [Example 1.18]
905 nM | 127 nM | CC(C)c1ncc2n1CCN(CCc1nc3cc(-c4ncco4)nc(N)n3n1)C2 [Example 1.19]
48.1 nM | 160 nM | Cc1c(-c2cccc(F)c2)nc(N)c2nc(CCN3CCn4c(cnc4C(C)C)C3)nn12 [Example 2.8]
248 nM | 636 nM | COc1c(F)cc(F)cc1-c1cc2nc(CCN3CCn4c(cnc4C(C)C)C3)nn2c(N)n1 [Example 2.9]
400 nM | 1000 nM | CC(C)c1ncc2n1CCN(CCc1nc3cc(-c4cc(F)ccc4O)nc(N)n3n1)C2 [Example 2.10]
 | 0.5 nM | Cc1c(-c2ncco2)nc(N)c2nc(Cc3ccccc3C(F)(F)F)nn12 [Example 7.3, 5-methyl-6-(oxazol-2-yl)-2-(2-(trifluoromethyl)benzyl)-[1,2,4]triazolo[1,5-a]pyrazin-8-amine]
 | 15.3 nM | Cc1c(-c2cc(F)ccc2F)nc(N)c2nc(Cc3ccc(C(F)(F)F)cc3)nn12 [Example 7.4, 6-(2,5-difluorophenyl)-5-methyl-2-(4-(trifluoromethyl)benzyl)-[1,2,4]triazolo[1,5-a]pyrazin-8-amine]

IC50 [1] | IC50 [2] | Structure (SMILES)
 | 493 nM | Nc1nc(-c2ccccc2)cc2nc(CCO)nn12 [Example 14.3, 2-(5-amino-7-phenyl-[1,2,4]triazolo[1,5-c]pyrimidin-2-yl)ethan-1-ol]
 | 0.6 nM | Cc1c(-c2ncco2)nc(N)n2nc(CCN3CCc4c(ncn4C4CCCC4)C3)nc12 [Example 17.18, 2-(2-(1-cyclopentyl-1,4,6,7-tetrahydro-5H-imidazo[4,5-c]pyridin-5-yl)ethyl)-8-methyl-7-(oxazol-2-yl)-[1,2,4]triazolo[1,5-c]pyrimidin-5-amine]
 | 3 nM | Cc1c(-c2ncco2)nc(N)n2nc(CCN3CCc4ncn(C5CCCC5)c4C3)nc12 [Example 17.19, 2-(2-(3-cyclopentyl-3,4,6,7-tetrahydro-5H-imidazo[4,5-c]pyridin-5-yl)ethyl)-8-methyl-7-(oxazol-2-yl)-[1,2,4]triazolo[1,5-c]pyrimidin-5-amine]
 | 90.9 nM | Nc1nc(-c2ncco2)cc2nc(CCN3CC(F)(F)C3)nn12 [Example 17.20, 2-(2-(3,3-difluoroazetidin-1-yl)ethyl)-7-(oxazol-2-yl)-[1,2,4]triazolo[1,5-c]pyrimidin-5-amine]
 | 450 nM | Nc1nc(-c2ncco2)cc2nc(CCN3CCc4[nH]ncc4C3)nn12 [Example 17.21, 7-(oxazol-2-yl)-2-(2-(1,4,6,7-tetrahydro-5H-pyrazolo[4,3-c]pyridin-5-yl)ethyl)-[1,2,4]triazolo[1,5-c]pyrimidin-5-amine]
 | 78.9 nM | Cn1nc(C(F)(F)F)c2c1CCN(CCc1nc3cc(-c4ncco4)nc(N)n3n1)C2 [Example 17.22, 2-(2-(1-methyl-3-(trifluoromethyl)-1,4,6,7-tetrahydro-5H-pyrazolo[4,3-c]pyridin-5-yl)ethyl)-7-(oxazol-2-yl)-[1,2,4]triazolo[1,5-c]pyrimidin-5-amine]
 | 122 nM | Nc1nc(-c2ncco2)cc2nc(CCN3CCN(CC4CC4)C(=O)C3)nn12 [Example 17.23, 4-(2-(5-amino-7-(oxazol-2-yl)-[1,2,4]triazolo[1,5-c]pyrimidin-2-yl)ethyl)-1-(cyclopropylmethyl)piperazin-2-one]
 | 319 nM | Cc1cc2n(n1)CCN(CCc1nc3cc(-c4ncco4)nc(N)n3n1)C2 [Example 17.24, 2-(2-(2-methyl-6,7-dihydropyrazolo[1,5-a]pyrazin-5(4H)-yl)ethyl)-7-(oxazol-2-yl)-[1,2,4]triazolo[1,5-c]pyrimidin-5-amine]
 | 402 nM | Nc1nc(-c2ncco2)cc2nc(CCN3CCc4nccnc4C3)nn12 [Example 17.25, 2-(2-(7,8-dihydropyrido[3,4-b]pyrazin-6(5H)-yl)ethyl)-7-(oxazol-2-yl)-[1,2,4]triazolo[1,5-c]pyrimidin-5-amine]
 | 629 nM | CC(C)c1ncc2n1CCN(CCc1nc3c(N)nc(-c4ncco4)cn3n1)C2 [Example 17.26, 2-(2-(3-isopropyl-5,6-dihydroimidazo[1,5-a]pyrazin-7(8H)-yl)ethyl)-6-(oxazol-2-yl)-[1,2,4]triazolo[1,5-a]pyrazin-8-amine]
 | 39.9 nM | Nc1nc(-c2ccccc2)cc2nc(CCN3CCn4c(cnc4C4CCC4)C3)nn12 [Example 17.27, 2-(2-(3-cyclobutyl-5,6-dihydroimidazo[1,5-a]pyrazin-7(8H)-yl)ethyl)-7-phenyl-[1,2,4]triazolo[1,5-c]pyrimidin-5-amine]
 | 0.5 nM | Cc1c(-c2ncco2)nc(N)n2nc(Cc3ccccc3)nc12 [Example 19.3, 2-benzyl-8-methyl-7-(oxazol-2-yl)-[1,2,4]triazolo[1,5-c]pyrimidin-5-amine]
 | 0.5 nM | Cc1c(-c2ncco2)nc(N)c2nc(Cc3ccccc3)nn12 [Example 20.2, 2-benzyl-5-methyl-6-(oxazol-2-yl)-[1,2,4]triazolo[1,5-a]pyrazin-8-amine]
 | 40 nM | Cc1c(-c2ccc(F)cc2)nc(N)c2nc(Cc3ccccc3)nn12 [Example 20.3, 2-benzyl-6-(4-fluorophenyl)-5-methyl-[1,2,4]triazolo[1,5-a]pyrazin-8-amine]
 | 3.2 nM | Nc1nc(-c2ncco2)c(C2CC2)n2nc(Cc3ccccc3)nc12 [Example 20.4, 2-benzyl-5-cyclopropyl-6-(oxazol-2-yl)-[1,2,4]triazolo[1,5-a]pyrazin-8-amine]
 | 21.5 nM | Cc1c(-c2ncco2)nc(N)n2nc(Cn3cc(CCC(C)(C)O)cn3)nc12 [Example 21.3, 4-(1-((5-amino-8-methyl-7-(oxazol-2-yl)-[1,2,4]triazolo[1,5-c]pyrimidin-2-yl)methyl)-1H-pyrazol-4-yl)-2-methylbutan-2-ol]
 | 21.5 nM | Cc1c(-c2ncco2)nc(N)n2nc(CCc3ccc4c(c3)nnn4C3CC(F)(F)C3)nc12 [Example 22.3, 2-(2-(1-(3,3-Difluorocyclobutyl)-1H-benzo[d][1,2,3]triazol-5-yl)ethyl)-8-methyl-7-(oxazol-2-yl)-[1,2,4]triazolo[1,5-c]pyrimidin-5-amine]
